The values below come from patent publication US12544428B2, “Controlled-release CNP agonists with reduced side-effects” (ASCENDIS PHARMA GROWTH DISORDERS A/S, priority 2016, dated 2026).

One test addresses T1, NPR-B receptor (Mus musculus, UniProt Q6VVW5).
T1 construct: These cells express endogenously the NPR-B receptor on the cell surface; endogenous in cells; host or cells: NIH-3T3 (murine embryo fibroblast)
T1 sequence (Q6VVW5 23-1047 limits assumed): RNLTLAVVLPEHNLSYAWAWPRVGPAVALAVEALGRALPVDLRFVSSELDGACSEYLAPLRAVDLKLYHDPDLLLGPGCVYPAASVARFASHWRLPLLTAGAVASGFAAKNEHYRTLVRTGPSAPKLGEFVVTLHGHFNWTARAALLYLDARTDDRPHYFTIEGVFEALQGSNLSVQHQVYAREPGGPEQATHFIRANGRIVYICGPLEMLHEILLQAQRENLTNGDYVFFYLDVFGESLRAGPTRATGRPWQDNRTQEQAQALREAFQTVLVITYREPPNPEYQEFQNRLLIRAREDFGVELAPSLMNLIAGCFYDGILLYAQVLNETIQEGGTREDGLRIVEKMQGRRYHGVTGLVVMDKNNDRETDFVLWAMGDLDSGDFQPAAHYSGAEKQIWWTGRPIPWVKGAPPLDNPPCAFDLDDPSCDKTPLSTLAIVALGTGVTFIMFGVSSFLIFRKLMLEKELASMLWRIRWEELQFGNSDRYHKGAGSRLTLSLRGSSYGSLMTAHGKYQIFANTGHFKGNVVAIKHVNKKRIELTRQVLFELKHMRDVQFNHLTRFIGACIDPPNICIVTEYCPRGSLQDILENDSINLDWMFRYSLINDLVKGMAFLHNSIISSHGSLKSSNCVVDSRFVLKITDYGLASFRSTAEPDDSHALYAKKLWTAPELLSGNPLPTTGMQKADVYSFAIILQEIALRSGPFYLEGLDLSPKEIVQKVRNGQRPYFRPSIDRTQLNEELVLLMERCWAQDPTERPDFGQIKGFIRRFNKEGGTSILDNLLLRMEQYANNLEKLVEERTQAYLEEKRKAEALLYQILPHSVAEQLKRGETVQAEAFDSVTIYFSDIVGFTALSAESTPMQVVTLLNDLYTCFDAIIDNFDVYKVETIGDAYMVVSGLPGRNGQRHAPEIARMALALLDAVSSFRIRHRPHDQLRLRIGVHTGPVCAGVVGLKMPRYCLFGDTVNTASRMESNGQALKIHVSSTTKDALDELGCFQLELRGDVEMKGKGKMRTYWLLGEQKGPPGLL
As to the kind of experiment: Functional cGMP stimulation in NIH-3T3 cells with CNP variants. To be noted: residual NPR-B activity vs non-PEGylated CNP-38, cGMP. It counts as cell-based, murine. The protocol:
As used herein “EC50” with regard to controlled-release CNP agonist and CNP agonist refers to the concentration of controlled-release CNP agonist and CNP agonist with which a half-maximum cGMP production of NPR-B is elicited. NPR-B activity in the form of its EC50 of the controlled-release CNP agonist, of the released CNP agonist and of CNP-22 is measured by cultivating NIH-3T3 (Murine Embryo Fibroblast cell line) cells which express NPR-B on their cell surface, incubating the cells with the controlled-release CNP agonist, the corresponding released CNP agonist or CNP-22, respectively, and determining the intracellular production of the second messenger cGMP with a standard cGMP assay. In particular the assay is performed as follows: • (1) murine NIH-3T3 cells expressing endogenous NPR-B are cultivated in DMEM F-12 medium with 5% FBS and 5 mM glutamine at 37° C. and 5% CO2; • (2) for each assay 50,000 cells are resuspended in Dulbecco's PBS with IBMX and incubated with either the controlled-release CNP agonist, the corresponding released CNP agonist or CNP-22; each in different concentrations; • (3) after incubating for 30 min at 37° C. and 5% CO2, the cells are lysed and cGMP levels are determined; and • (4) generating an EC50 value from the determined cGMP levels.
Functional activity of CNP variants were determined in a cell-based assay with NIH-3T3 cells (Murine Embryo Fibroblast cell line). These cells express endogenously the NPR-B receptor on the cell surface. Stimulation of the NPR-B receptor with CNP leads to intracellular production of the second messenger cGMP which is detected with a commercially available cGMP assay. NIH-3T3 cells were routinely cultured in DMEM F-12 medium with 5% FBS and 5 mM glutamine at 37° C. and 5% CO2. For each assay, 50,000 cells were resuspended in stimulation buffer (Dulbecco's PBS with IBMX) and incubated with the CNP variants in different concentrations. CNP (dilutions were made in PBS with 0.2% BSA). After incubation of 30 min at 37° C. and 5% CO2, the cells were lyzed and cGMP levels were determined with a commercially available cGMP TR-FRET assay (Cisbio, cGMP kit, Cat. No. 62GM2PEB). PEGylated CNP variants were always characterized in comparison with the non-PEGylated version in the same experiment batch. If possible, evaluation of the residual activity was done via the relative EC50-parameter of the resulting dose-response curve (restricted model with common slope).
11i was incubated under physiological conditions (1 mg CNP-38 eq/mL), as described in Example 20. After 7 d, released CNP-38 was isolated by RP-HPLC and analyzed for bioactivity as described in Example 21.

A further test deals with T2, NPR-C (Homo sapiens, UniProt P17342).
T2 construct: expressed in transfected cells; host or cells: Hek293, lentiviral transduction, CMV promoter, puromycin selection
T2 sequence (P17342 27-541): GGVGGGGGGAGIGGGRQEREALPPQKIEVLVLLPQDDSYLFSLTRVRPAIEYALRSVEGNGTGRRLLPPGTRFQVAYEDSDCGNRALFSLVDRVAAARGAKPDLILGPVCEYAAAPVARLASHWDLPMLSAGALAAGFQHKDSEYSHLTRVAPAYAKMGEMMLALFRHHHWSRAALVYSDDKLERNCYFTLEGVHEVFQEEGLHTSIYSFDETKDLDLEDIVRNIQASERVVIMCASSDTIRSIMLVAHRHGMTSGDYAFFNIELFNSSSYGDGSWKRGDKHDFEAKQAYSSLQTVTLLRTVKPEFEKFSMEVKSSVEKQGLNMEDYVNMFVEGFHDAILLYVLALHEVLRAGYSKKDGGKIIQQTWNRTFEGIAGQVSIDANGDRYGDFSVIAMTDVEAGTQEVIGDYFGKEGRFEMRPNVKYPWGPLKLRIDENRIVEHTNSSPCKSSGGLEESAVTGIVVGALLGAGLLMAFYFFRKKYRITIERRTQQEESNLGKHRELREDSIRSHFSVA
The experiment in a line: NPR-C affinity assay. Type of test: binding. To be noted: residual NPR-C affinity, NPR-C expressing Hek293 cells, competition with fluorescein-labelled CNP 27d.

Where only a bound is given, the exact number is not on record here.

On to “Permanent Lys26 CNP-38 PEG4×10 kDa Conjugate [Compound 12g]”, for which the “EC50 compound/EC50 CNP-38” value at NPR-B receptor was >>100. Besides, on NPR-C, the “IC50 of PEGylated CNP-38/IC50 CNP-38” value is listed as 143.
The matching figures for “Reversible Lys26 CNP-38 PEG2×20 kDa Conjugate [Compound 10f]”: >>100 and 12.
